Results: patent US8754071B2 (priority 2011, dated 2014)

Biological target: T1, c-kit (Homo sapiens, UniProt P10721)
T1 construct: human Mo7e cells which endogenously express c-kit; endogenous in cells; host or cells: human Mo7e cells (promegakaryocytic leukemia line), stimulated with human recombinant SCF
Assay: Mo7e cell proliferation assay (SCF dependent proliferation)
Type: cell-based
Conditions: Table 2; human Mo7e cells stimulated with SCF, 48 hours, CellTiter Glo; 1% FBS; read-out: c-kit (Mo7e)
Protocol: Mo7e Cell Proliferation Assay The compounds of Table 1 and Table 2 were tested for inhibition of SCF dependent proliferation using human Mo7e cells which endogenously express c-kit in a 384 well format. […] After 48 hours of incubation at 37° C., cell viability was measured by adding 25 uL of CellTiter Glo (Promega) to the cells and the luminescence was measured by a […] camera (Molecular Devices). […] The IC50 value is given as that concentration of the test compound in question that provoke a response halfway between the baseline and maximum responses.

T1 sequence (P10721 26-976): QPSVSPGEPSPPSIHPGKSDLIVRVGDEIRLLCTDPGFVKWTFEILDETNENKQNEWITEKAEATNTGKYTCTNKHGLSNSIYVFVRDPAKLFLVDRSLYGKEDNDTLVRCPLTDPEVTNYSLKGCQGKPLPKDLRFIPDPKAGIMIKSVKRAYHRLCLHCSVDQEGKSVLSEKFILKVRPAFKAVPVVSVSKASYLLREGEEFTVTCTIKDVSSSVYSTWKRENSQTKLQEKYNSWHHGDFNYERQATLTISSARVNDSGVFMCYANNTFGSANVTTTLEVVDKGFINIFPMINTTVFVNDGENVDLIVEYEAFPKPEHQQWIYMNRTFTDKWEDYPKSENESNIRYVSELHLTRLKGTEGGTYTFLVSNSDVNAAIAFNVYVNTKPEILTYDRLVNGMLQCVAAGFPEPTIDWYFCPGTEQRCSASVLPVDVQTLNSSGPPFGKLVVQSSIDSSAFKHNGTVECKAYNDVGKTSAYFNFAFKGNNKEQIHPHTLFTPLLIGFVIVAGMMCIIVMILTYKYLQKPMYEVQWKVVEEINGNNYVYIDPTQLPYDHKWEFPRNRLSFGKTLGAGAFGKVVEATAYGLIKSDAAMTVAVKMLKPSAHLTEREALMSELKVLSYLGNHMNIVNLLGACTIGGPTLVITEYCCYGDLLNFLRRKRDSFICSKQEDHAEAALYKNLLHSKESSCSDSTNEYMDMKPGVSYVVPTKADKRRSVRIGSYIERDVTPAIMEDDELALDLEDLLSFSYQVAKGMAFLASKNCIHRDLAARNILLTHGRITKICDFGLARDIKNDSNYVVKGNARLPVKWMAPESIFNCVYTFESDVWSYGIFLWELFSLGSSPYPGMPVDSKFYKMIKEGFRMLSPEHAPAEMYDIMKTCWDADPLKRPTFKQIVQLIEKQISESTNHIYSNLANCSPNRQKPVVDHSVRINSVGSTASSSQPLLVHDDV

SMILES | IC50 [nM]
Cc1ccc(-c2noc([C@@H]3COCCN3C(=O)OC(C)(C)C)n2)cc1NC(=O)c1cnc2ccccn12 [F116] | 792
Cc1ccc(-c2noc([C@H]3COCCN3C(=O)OC(C)(C)C)n2)cc1NC(=O)c1cnc2ccccn12 [F117] | 629
Cc1ccc(-c2noc([C@H]3COCCN3)n2)cc1NC(=O)c1cnc2ccccn12 [F118] | 936
Cc1ccc(-c2noc([C@@H]3CCCC(=O)N3)n2)cc1NC(=O)c1cnc2ccccn12 [F119] | 434
Cc1ccc(-c2noc([C@@H]3CC(F)(F)CN3C(=O)OC(C)(C)C)n2)cc1NC(=O)c1cnc2ccccn12 [F120] | 311
Cc1ccc(-c2noc([C@@H]3CC(F)(F)CN3)n2)cc1NC(=O)c1cnc2ccccn12 [F121] | 205
Cc1ccc(-c2noc([C@@H]3CN(C(=O)OC(C)(C)C)CCO3)n2)cc1NC(=O)c1cnc2ccccn12 [F122] | 296
Cc1ccc(-c2noc([C@@H]3CNCCO3)n2)cc1NC(=O)c1cnc2ccccn12 [F123] | 527
Cc1ccc(-c2noc(C3CN(C(=O)OC4(C)CC4)C3)n2)cc1NC(=O)c1cnc2ccccn12 [F126] | 891
COCCOC(=O)N1CC(c2nc(-c3ccc(C)c(NC(=O)c4cnc5ccccn45)c3)no2)C1 [F127] | 517
Cc1ccc(-c2noc(C3(C)COC3)n2)cc1NC(=O)c1cnc2ccccn12 [F128] | 140
Cc1ccc(-c2noc(CN3CC(C#N)C3)n2)cc1NC(=O)c1cnc2ccccn12 [F129] | 310
Cc1ccc(-c2noc(C3CN(S(=O)(=O)NC(=O)OC(C)(C)C)C3)n2)cc1NC(=O)c1cnc2ccccn12 [F133] | 138
Cc1ccc(-c2noc([C@@H]3CCN3)n2)cc1NC(=O)c1cnc2ccccn12 [F136] | 543
COC1CN(C(=O)OCc2nc(-c3ccc(C)c(NC(=O)c4cnc5ccccn45)c3)no2)C1 [F138] | 270
Cc1ccc(-c2noc(C3(NC(=O)OC(C)(C)C)COC3)n2)cc1NC(=O)c1cnc2ccccn12 [F139] | 139
COC(=O)NC1(c2nc(-c3ccc(C)c(NC(=O)c4cnc5ccccn45)c3)no2)COC1 [F140] | 103
COCC(=O)NC1(c2nc(-c3ccc(C)c(NC(=O)c4cnc5ccccn45)c3)no2)COC1 [F141] | 700

The remaining lines, values ahead:

IC50 [nM] | SMILES
426 | Cc1ccc(-c2noc(CCC(=O)N3CCOCC3)n2)cc1NC(=O)c1cnc2ccccn12 [F124]
426 | Cc1ccc(-c2noc(CCC(=O)N3CCC(F)(F)C3)n2)cc1NC(=O)c1cnc2ccccn12 [F125]
127 | Cc1ccc(-c2noc(CN3CC(F)C3)n2)cc1NC(=O)c1cnc2ccccn12 [F130]
738 | Cc1ccc(-c2noc(CN3CC(O)C3)n2)cc1NC(=O)c1cnc2ccccn12 [F131]
283 | COC1CN(Cc2nc(-c3ccc(C)c(NC(=O)c4cnc5ccccn45)c3)no2)C1 [F132]
892 | Cc1ccc(-c2noc(C3CN(C(=O)OCCN4CCOCC4)C3)n2)cc1NC(=O)c1cnc2ccccn12 [F134]
750 | Cc1ccc(-c2noc(C3CN(C(=O)OCCCN4CCOCC4)C3)n2)cc1NC(=O)c1cnc2ccccn12 [F135]
792 | Cc1ccc(-c2noc(COC(=O)NC3CN(C)C3)n2)cc1NC(=O)c1cnc2ccccn12 [F137]
578 | Cc1ccc(-c2noc(CN3CCOC3=O)n2)cc1NC(=O)c1cnc2ccccn12 [F142]
314 | Cc1ccc(-c2noc(CN3CCCC3=O)n2)cc1NC(=O)c1cnc2ccccn12 [F143]
963 | Cc1ccc(-c2noc(CNC(=O)CN3CCOCC3)n2)cc1NC(=O)c1cnc2ccccn12 [F144]
447 | Cc1ccc(-c2noc(CNC(=O)CC3CCCO3)n2)cc1NC(=O)c1cnc2ccccn12 (stereo not drawn) [F145]
187 | Cc1ccc(-c2noc(CNC(=O)[C@H]3CCCO3)n2)cc1NC(=O)c1cnc2ccccn12 [F146]
232 | Cc1ccc(-c2noc(CNC(=O)[C@@H]3CCCO3)n2)cc1NC(=O)c1cnc2ccccn12 [F147]
150 | Cc1ccc(-c2noc(CNC(=O)C3(C)COC3)n2)cc1NC(=O)c1cnc2ccccn12 [F148]
